{
  "source": "paper PMC4501412",
  "about": "(Memórias do Instituto Oswaldo Cruz, 2015)",
  "key": {"[1]": {"tested_on": "Bloodstream trypomastigotes of T. cruzi (Y strain)", "assay": "In vitro trypanocidal assay", "type": "cell-based", "conditions": "Trypanosoma cruzi, 24 h, read-out: IC50/24 h"}, "[2]": {"tested_on": "Salmonella typhimurium", "conditions": "ref Rosenkranz Jr et al. 1976; cited from earlier work"}, "[3]": {"tested_on": "DNA damage in human whole blood cells", "assay": "In vitro alkaline single cell gel electrophoresis", "type": "cell-based", "conditions": "positive control, 160 µM"}, "[4]": {"conditions": "ref Ferreiro et al. 2002; cited from earlier work"}},
  "data": [
    {"smiles": "O=C(Cn1ccnc1[N+](=O)[O-])NCc1ccccc1", "note": "[Compound 8, benznidazole]", "values": [
      {"measurement": "IC50", "setting": "[1]", "result": "9.7 ± 2.4", "unit": "µM"},
      {"measurement": "Ames test result", "setting": "[2]", "result": "positive"}
    ]},
    {"smiles": "COS(C)(=O)=O", "note": "[MMS, Methyl methane-sulfonate]", "values": [
      {"measurement": "TAU value (total DNA damage score)", "setting": "[3]", "result": "454.3 ± 9.2", "unit": "TAU"},
      {"measurement": "TAU value (total DNA damage score)", "setting": "[3]; listed as methyl methane-sulfonate", "result": "MI: mutagenicity inde; NA: not applicable; TAU: total arbitrary units for the positive control, methyl methane-sulfonate value was 454.3 ± 9.2."}
    ]},
    {"smiles": "Cc1ncc([N+](=O)[O-])n1CC(O)CCl", "note": "(centres unmarked) [Compound 4, ornidazole]", "values": [
      {"measurement": "Mutagenicity (in words)", "setting": "[4]", "result": "known to be a mutagenic agent"}
    ]}
  ]
}
